# Measured values taken from patent US7772228B2, “Method for treatment of bacterial infections with once or twice-weekly administered rifalazil” (priority 1998, dated 2010).
# Tests used:
# M. avium [1] = settings: 18 strains, agar dilution; cited from earlier work
# [2] = tested on: Chlamydia pneumoniae strain TW-l 83; assay: Sensitivity testing in cell cultures; format: cell-based
# Experimental: (§1) Sensitivity testing was conducted in cell cultures against Chlamydia pneumoniae strain TW-l 83 using rifalazil, clanthromycin, or azithromycin. […] The in vivo testing of rifalazil used a mouse model infected with Chlamydia pneumoniae strain AR-39. […] All control animals remained infected.
# clinical [3] = settings: human, in vivo
# Experimental: A total of four clinical trials have been conducted to study the effects of rifalazil in humans. Two single-dose Phase 1 clinical trials (001) and (002) assessed the safety and pharmacokinetics of rifalazil in normal, healthy, fasted subjects. In the 001 trial, a single 300 mg dose of rifalazil was administered to six subjects. In the 002 trial, single doses of 30 mg or 100 mg were administered to eight subjects each. The results of these studies indicated a substantially higher incidence of adverse reactions at the 300 mg dose compared to the 30 mg or 100 mg dose.
# The pharmacokinetics of rifalazil in whole blood in these two clinical trials was similar to that of rifalazil pharmacokinetics in plasma. […] Therefore, future pharmacokinetic analyses focused on rifalazil concentrations in plasma. Table 7 summarizes noncompartmental parameters derived from plasma concentrations in fasted subjects following administration of single doses of 30 mg, 100 mg, or 300 mg of rifalazil in these studies.
# (§2) Pharmacokinetic analyses associated with clinical trials involved measurement of concentrations of rifalazil in plasma and/or whole blood of subjects participating in the four Phase 1 studies using high performance liquid chromatography.
# M. tuberculosis [4] = format: cell-based, Mycobacterium tuberculosis; settings: comparison of MIC50 and MIC90, clinical isolates
# [5] = Multiple-dose oral toxicology studies in dogs; format: in vivo
# Experimental: (§3) In chronic studies with dogs and rats, the no-observed-adverse-effect-level was 1000 mg/kg. […] Significant partitioning of drug-related radioactivity to the formed elements of the blood was observed. […] The urine contained a small amount (5.5%) of radioactivity.
# (§4) Single-dose and multiple-dose oral toxicology studies were conducted in mice, rats, and dogs. In addition, to maximize systemic exposure, single-dose intravenous (IV) and intraperitoneal (IP) studies were conducted in rats and mice. Four-week and 13-week oral studies in dogs and rats and 26-week oral studies in rats included standard clinical measurements and physical and pathological evaluations.
# M. avium [6] = assay: Rabbit model of M. avium infection; format: in vivo; settings: compared to controls
# [7] = tested on: Chlamydia pneumoniae strain AR-39; assay: Mouse model infected with Chlamydia pneumoniae; format: in vivo; settings: intraperitoneal 1 mg/kg QID for three days; five days after cessation
# Experimental: as §1
# [8] = human, in vivo
# Experimental: The fourth trial (004) was a also a randomized, rising, double-blind, multiple-dose, placebo-controlled study. In this trial, weekly doses of placebo or rifalazil (25 mg or 50 mg) were administered to the subjects for a total of 4 weeks. All subjects received the dose within 30 minutes after eating a standardized breakfast and were monitored for an additional 14 days after the last dose. Four subjects were randomized to placebo, six subjects to 25 mg rifalazil, and eight subjects to 50 mg rifalazil.
# Laboratory testing regimen for 003 and 004 trials was the same as for 001 and 002 trials.
# Results obtained in 004 clinical trial where the healthy volunteers received only one dose a week for four weeks are seen in FIGS. 8-10.
# Helicobacter pylori = tested on: Helicobacter pylori; design: unit of the concentration uncertain; settings: time-kill, broth medium, 0.04 (unit uncertain); cited from earlier work
# [9] = Clinical signs, general behavior and spontaneous locomotor activity of mice; format: in vivo
# Experimental: Pharmacological studies were undertaken in mice, rats, and dogs, and in isolated guinea pig ileum.
# Rifalazil had little effect on the clinical signs or general behavior of mice following oral administration of 100, 300, or 1,000 mg/kg. Rifalazil had no effect on the spontaneous locomotor activity of mice at 100 and 300 mg/kg.
# clinical [10] = settings: human, in vivo; remark: listed apart in the source
# From the text: as §2
# Attempts were made to analyze the multiple-dose pharmacokinetics using a linear 3-compartment model, and a 3-compartment model incorporating enzyme induction. However, neither multi-compartmental model accurately characterized the pharmacokinetic parameters in all subjects. Daily dosing and related early terminations due to adverse reactions, differences in bioavailability from a food effect, and nonconnective dose administration further complicated these analyses. Therefore, only noncompartmental pharmacokinetic parameters were derived for clinical trials 003 and 004.
# [11] = tested on: M. tuberculosis strain Erdman; settings: cited from earlier work
# [12] = Multiple-dose oral toxicology studies in rats; format: in vivo
# Experimental: as §3, §4
# [13] = tested on: M. tuberculosis in human macrophages; assay: MIC and MBC against intracellular bacteria in human macrophages; format: cell-based, Mycobacterium tuberculosis
# M. tuberculosis [14] = settings: eight weeks treatment; cited from earlier work
smiles,measurement,setting,value
"CO[C@H]1/C=C/O[C@@]2(C)Oc3c(C)c(O)c4c(=O)c(c5oc6cc(N7CCN(CC(C)C)CC7)cc(O)c6nc-5c4c3C2=O)NC(=O)/C(C)=C\C=C\[C@H](C)[C@H](O)[C@@H](C)[C@@H](O)[C@@H](C)[C@H](OC(C)=O)[C@@H]1C [Rifalazil, 3′-hydroxy-5′-(4-isobutyl-1-piperazinyl)benzoxasinorifamycin]",MIC90,M. avium [1],1.56 µg/mL
same,fold more potent than clanthromycin,[2],300 fold
same,fold more potent than erythromycin,[2],1500 fold
same,plasma to blood ratio,clinical [3],1.6:1
same,AUC(0-inf),clinical [3]; 30 mg,505 ng·h/mL
same,AUC(0-t),clinical [3]; 30 mg,197 ng·h/mL
same,Cmax,clinical [3]; 30 mg,17.8 ng/mL
same,Tmax,clinical [3]; 30 mg,3.1 h
same,half-life,clinical [3]; 30 mg,48.7 h
same,AUC(0-inf),clinical [3]; 100 mg,1540 ng·h/mL
same,AUC(0-t),clinical [3]; 100 mg,800 ng·h/mL
same,Cmax,clinical [3]; 100 mg,53.6 ng/mL
same,Tmax,clinical [3]; 100 mg,4 h
same,half-life,clinical [3]; 100 mg,43.1 h
same,AUC(0-inf),clinical [3]; 300 mg,4330 ng·h/mL
same,AUC(0-t),clinical [3]; 300 mg,1450 ng·h/mL
same,Cmax,clinical [3]; 300 mg,116 ng/mL
same,Tmax,clinical [3]; 300 mg,3 h
same,half-life,clinical [3]; 300 mg,206 h
same,fold greater activity than rifabutin,M. tuberculosis [4],4 fold
same,fold greater activity than rifampin,M. tuberculosis [4],> 64 fold
same,liver weight,"[5]; 1,000 mg/kg, four weeks daily dosing",slight increase in liver weight
same,no observable adverse effect level,"[5]; 13-week study, daily oral",300 mg/kg
same,no-observed-adverse-effect-level,"[5]; chronic studies, dogs",1000 mg/kg
same,doses at which hematological changes were noted,"[5]; multiple-dose oral, dogs",> 30 mg/kg
same,bacterial load on organs,M. avium [6],reduced the bacterial load on organs compared to controls
same,Chlamydia pneumoniae in the lungs,[7],not detectable
same,time for hematologic parameters to return to normal after the last dose,[8],≤ 14 days
same,CFUs at 24 hours lower than the control at zero hours,Helicobacter pylori,more than 4.5 log
same,spontaneous locomotor activity,[9]; 1000 mg/kg,increase in spontaneous locomotor activity for one hour
same,spontaneous locomotor activity,[9]; 100 and 300 mg/kg,no effect
same,clinical signs or general behavior,"[9]; oral 100, 300, or 1,000 mg/kg",little effect
same,Half-life distribution t½ (mean),clinical [10],17.26 h
same,half-life,clinical [10]; Half-life distribution t½ (mean),10.1 h
same,Tmax,clinical [10]; Tmax (mean),5.25 h
same,"reduction of bacterial load in lungs and spleens, comparison of drugs","[11]; 20 mg/kg, five times per week for four weeks",reduced bacterial loads to a significantly greater extent than the other two drugs
same,"activity against organisms in lungs, comparison of treatments",[11]; four weeks treatment,most active single-agent
same,cell counts in lungs compared to early controls,[11]; four weeks treatment,significantly reduced cell counts in lungs
same,cell counts in lungs compared to late controls,[11]; four weeks treatment,reduced cell counts in lungs
same,CFUs in the spleen,"[11]; rifalazil 20 mg/kg, PZA 150 mg/kg, four weeks",most active single-agent
same,doses with dose-related lymphocytic depletion in the spleens,[12]; 26-week study,> 30 mg/kg/day
same,no-observed-adverse-effect-level,"[12]; chronic studies, rats",1000 mg/kg
same,doses at which hematological changes were noted,"[12]; multiple-dose oral, rats",> 30 mg/kg
same,MIC and MBC fold lower than rifampin,[13],at least 10 fold
same,"gross lung lesions, bacterial loads, survival time versus rifampin",M. tuberculosis [14],outperformed rifampin in treating the disease
